In US10611765B2, “Pyrrolopyrimidine derivatives as Mps1/TTK kinase inhibitors” (Ohio State Innovation Foundation, priority 2014, dated 2020):
Where two headings read alike, the source gives them in different places.

Tests used:
Hs578T = test: MTS anti-proliferative assay, Hs578T; format: cell-based; settings: TNBC, basal B, treatment for 7 days
Method: (§1) The anti-proliferative effects and IC50 values of the compounds in the BC cell line panel were determined by MTS assay.
(§2) The cells, except Sk-Br-3, AU565 and BT-474 were maintained in a mixture of Dulbecco's modified Eagle's medium and Ham's F12 medium (1:1) (DMEM/F12) without phenol red supplemented with 5% fetal bovine serum (FBS) and 1× antibiotic-antimycotic (100 U/mL penicillin G sodium, 100 μg/mL streptomycin sulfate and 0.25 μg/mL amphotericin B) and were plated separately in flasks in a humidified incubator (5% CO2: 95% air, 37° C.). The media used for Sk-Br-3, AU565 and BT-474 cell lines was described in (1) Brueggemeier et al., J. Steroid Biochem. Mol. Biol., 2005; 95:129-136; and (2) Diaz-Cruz et al., J. Clin. Endocrinol. Metab., 2005; 90:2563-2570. The media were changed every 2-days. When the cells grew to about 80% confluence, cells were washed twice with calcium- and magnesium-free phosphate-buffered saline (PBS, pH 7.4), and then trypsinized with 0.05% trypsin-5.3 mm EDTA. The trypsinization was stopped by addition of culture medium with 5% FBS. After centrifugation, the dissociated cells were resuspended in the same medium and subcultured into 75-cm^2 culture flasks at a ratio of 1:5 flasks.
(§3) The BC cells were seeded at the density of 1,000 cells per well (100 μL) into 96 well plate in DMEM/F-12 (1:1), supplemented with 5% (v/v) FCS and incubated overnight at 37° C. Test compounds are solubilized in dimethyl sulfoxide (DMSO), diluted in cell culture medium to a range of final assay concentrations of 1 nM to 10 μM, added to cells and incubated for 7 days at 37° C. The medium including the test compound are refreshed at days 3 and 5. The MTS assay are carried out by using the CellTiter 96® AQueous One Solution Cell Proliferation Assay kit following the manufacturer's instruction.

MDA-MB-468 = test: MTS anti-proliferative assay, MDA-MB-468; format: cell-based; settings: MDA-MB-468, TNBC, basal B, treatment for 7 days
Method: as §1, §2, §3

[1] = test system: panel of breast cancer cell lines; test: Anti-proliferative assays, panel of BC cell lines (overall statements); format: cell-based; settings: in some or all of the cell based assays in the panel
Method: This example describes the development of novel small molecule Mps1/TTK inhibitors as targeted therapies for TNBC and other aggressive BC using drug discovery technologies. Using computational modeling, medicinal chemistry, biochemistry and cell culture assays, the inventors have identified novel small molecules as potential Mps1/TTK inhibitors. The compounds were evaluated in anti-proliferative assays of a panel of 15 BC cell lines and further examined for their ability to inhibit a variety of Mps1-dependent biological functions.
as §1, §2, §3

MDA-MB-436 = test: MTS anti-proliferative assay, MDA-MB-436; format: cell-based; settings: MDA-MB-436, TNBC, basal B, treatment for 7 days
Method: as §1
(§4) The media were changed every 2-days. When the cells grew to about 80% confluence, cells were washed twice with calcium- and magnesium-free phosphate-buffered saline (PBS, pH 7.4), and then trypsinized with 0.05% trypsin-5.3 mm EDTA. The trypsinization was stopped by addition of culture medium with 5% FBS.
as §3

AU565 = test: MTS anti-proliferative assay, AU565; format: cell-based; settings: AU565, luminal, treatment for 7 days
Method: as §1, §2, §3

CAMA-1 = test: MTS anti-proliferative assay, CAMA-1; format: cell-based; settings: CAMA-1, luminal, treatment for 7 days
Method: as §1, §2, §3

CAL-51 = test: MTS anti-proliferative assay, CAL-51; format: cell-based; settings: CAL-51, TNBC, basal, treatment for 7 days
Method: as §1, §2, §3

BT-20 = test: MTS anti-proliferative assay, BT-20; format: cell-based; settings: BT-20, TNBC, basal A, treatment for 7 days
Method: as §1, §2, §3

BT-474 = test: MTS anti-proliferative assay, BT-474; format: cell-based; settings: BT-474, luminal B, treatment for 7 days
Method: as §1, §2, §3

MDA-MB-231 = test: MTS anti-proliferative assay, MDA-MB-231; format: cell-based; settings: MDA-MB-231, TNBC, basal B, treatment for 7 days
Method: as §1, §2, §3

MCF-7 = test: MTS anti-proliferative assay, MCF-7; format: cell-based; settings: MCF-7, luminal A, treatment for 7 days
Method: as §1, §2, §3

T47D = test: MTS anti-proliferative assay, T47D; format: cell-based; settings: luminal, treatment for 7 days
Method: as §1, §2, §3

HCC1937 = test: MTS anti-proliferative assay, HCC1937; format: cell-based; settings: HCC1937, TNBC, basal, treatment for 7 days
Method: as §1, §2, §3

MDA-MB-453 = test: MTS anti-proliferative assay, MDA-MB-453; format: cell-based; settings: MDA-MB-453, luminal A, treatment for 7 days
Method: as §1, §4, §3

Sk-Br-3 = test: MTS anti-proliferative assay, Sk-Br-3; format: cell-based; settings: Sk-Br-3, luminal, treatment for 7 days
Method: as §1, §2, §3

[2] = biological target: T1, Mps1/TTK kinase (recombinant GST-Mps1) (Homo sapiens, UniProt P33981); test: Mps1 in vitro kinase assay with Cetn2 substrate; format: biochemical
T1 sequence (P33981 1-857): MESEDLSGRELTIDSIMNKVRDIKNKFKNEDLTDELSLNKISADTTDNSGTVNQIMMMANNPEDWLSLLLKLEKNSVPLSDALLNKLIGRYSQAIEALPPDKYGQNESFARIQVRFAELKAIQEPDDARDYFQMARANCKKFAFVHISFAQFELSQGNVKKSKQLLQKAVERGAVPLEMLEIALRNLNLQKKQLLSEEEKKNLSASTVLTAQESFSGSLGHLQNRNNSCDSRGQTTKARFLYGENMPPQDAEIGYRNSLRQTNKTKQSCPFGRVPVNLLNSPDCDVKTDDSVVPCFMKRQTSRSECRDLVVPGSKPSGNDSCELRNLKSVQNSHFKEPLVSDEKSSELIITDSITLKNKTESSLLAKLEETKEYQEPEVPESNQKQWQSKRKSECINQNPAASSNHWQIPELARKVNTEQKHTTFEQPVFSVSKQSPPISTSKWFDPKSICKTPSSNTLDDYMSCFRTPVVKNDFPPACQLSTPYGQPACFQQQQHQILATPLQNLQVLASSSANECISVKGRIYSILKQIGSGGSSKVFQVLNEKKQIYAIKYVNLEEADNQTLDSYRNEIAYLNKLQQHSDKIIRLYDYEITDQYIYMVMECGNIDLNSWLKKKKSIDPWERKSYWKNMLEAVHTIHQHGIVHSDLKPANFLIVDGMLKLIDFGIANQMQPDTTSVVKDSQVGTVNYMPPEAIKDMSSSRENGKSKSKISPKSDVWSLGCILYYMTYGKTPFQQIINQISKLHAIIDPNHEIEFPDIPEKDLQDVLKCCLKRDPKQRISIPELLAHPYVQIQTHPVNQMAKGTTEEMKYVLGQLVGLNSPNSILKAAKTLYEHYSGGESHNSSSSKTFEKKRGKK
Method: To determine the efficacy of the compounds against Mps1/TTK kinase activity, assays were performed as previously described (11) using recombinant Mps1, Cetn2 (specific substrate), and varying concentration of compound.

BT-549 = test: MTS anti-proliferative assay, BT-549; format: cell-based; settings: BT-549, TNBC, basal B, treatment for 7 days
Method: as §1, §2, §3

[3] = test system: S-phase (BrdU-positive) cells; test: Centriole number in S-phase cells (preliminary investigations); format: cell-based; settings: drug for 20 hours, then 4 hour pulse of BrdU
Method: (§5) For these cell biology assays, cells were plated onto poly-L-lysine coated coverslips in 24 well dishes using the medium and growth conditions described above, but using medium containing phenol red. At 24 hours after plating, compounds (or the equivalent amount of DMSO) were added to individual wells at various concentrations. Cells were incubated for 24 hours at 37° C. BrdU was added during the last 4 hours of the incubation, after which cells were fixed in pre-chilled methanol at −20 OC for 10 minutes, stained with centrosome markers, then treated with acid to denature chromosomal DNA prior to staining for BrdU. To assess centriole biogenesis, centriole number was determined for triplicate samples in cells that had entered S-phase as judged by incorporation of BrdU. Primary antibodies used were mouse anti-γTubulin (pericentriolar material) and rabbit anti-Centrin 2 (centrioles). Secondary antibodies used were Alexa594-conjugated donkey anti-mouse and Alexa488-conjugated donkey anti-rabbit.
For centriole assembly assays, Cal-51 and MDA-MB-468 cells were treated with candidate compounds prior to a short pulse of BrdU. Because the centriole pair is replicated at the G1/S transition, compounds that block centrosome assembly will lead to an increased number of BrdU-positive cells with two centrioles. […]

Cal-51 cells = test: Centriole assembly / centrosome amplification assay, Cal-51; format: cell-based; settings: Cal-51, at 10 μM
Method: as §5
For centriole assembly assays, Cal-51 and MDA-MB-468 cells were treated with candidate compounds prior to a short pulse of BrdU. Because the centriole pair is replicated at the G1/S transition, compounds that block centrosome assembly will lead to an increased number of BrdU-positive cells with two centrioles. In addition, like many breast cancer cells Cal-51 and MDA-MB-468 are capable of centrosome amplification, and compounds that block this centrosome amplification should reduce the number of BrdU-positive cells with more than four centrioles.

[4] = additional investigations (text to Table 2), read-out: IC50, in vitro kinase activity of Mps1
[5] = in vitro kinase assay with Cetn2 substrate, Table 2, read-out: IC50 w/Cetn 2

| Compound | IC50 (Hs578T; Homo sapiens, Hs-578T, 168 h) | IC50 (MDA-MB-468; Homo sapiens, 168 h) | potency as compared to Mps1-IN-1 [1] | IC50 (MDA-MB-436; Homo sapiens, 168 h) | IC50 (CAMA-1; Homo sapiens, 168 h) | IC50 (CAL-51; Homo sapiens, 168 h) | IC50 (BT-20; Homo sapiens, 168 h) | IC50 (BT-474; Homo sapiens, 168 h) | IC50 (MDA-MB-231; Homo sapiens, 168 h) | IC50 (MCF-7; Homo sapiens, MCF7, 168 h) | IC50 (HCC1937; Homo sapiens, 168 h) | IC50 (MDA-MB-453; Homo sapiens, 168 h) | IC50 (Sk-Br-3; Homo sapiens, 168 h) | IC50 [2, 4] | IC50 [2, 5] | IC50 (BT-549; Homo sapiens, 168 h) | effect on centriole assembly [3] | effect on centriole assembly (Cal-51 cells) | effect on centrosome amplification (Cal-51 cells) | also measured |
| --- | --- | --- | --- | --- | --- | --- | --- | --- | --- | --- | --- | --- | --- | --- | --- | --- | --- | --- | --- | --- |
| COc1ccccc1Nc1nc(Nc2ccccc2S(=O)(=O)C(C)C)c2cc[nH]c2n1 [Compound 10, N4-(2-(isopropylsulfonyl)phenyl)-N2-(2-methoxyphenyl)-7H-pyrrolo-[2,3-d]pyrimidine-2,4-diamine] | > 10000 nM | 1860 nM | significantly more potent | 1290 nM | 1550 nM | 1500 nM | 50 nM | 720 nM | 450 nM | 350 nM | 990 nM | > 10000 nM | 970 nM | 3400 nM | 3420 nM | 1600 nM |  |  |  | IC50 (AU565; Homo sapiens, 168 h): > 10000 nM; IC50 (T47D; Homo sapiens, 168 h): 340 nM |
| COc1cc(N2CCOCC2)ccc1Nc1nc(Nc2ccccc2S(=O)(=O)C(C)C)c2cc[nH]c2n1 [Compound 11, N4-(2-(isopropylsulfonyl)phenyl)-N2-(2-methoxy-4-morpholinophenyl)-7H-pyrrolo[2,3-d]pyrimidine-2,4-diamine] | > 10000 nM | 360 nM | significantly more potent | 1230 nM | 780 nM | 300 nM | 1500 nM | 330 nM | > 10000 nM | 400 nM | 1100 nM | > 10000 nM | 370 nM | 13100 nM | 13100 nM | 1310 nM |  |  |  |  |
| COc1cc(N2CCC(O)CC2)ccc1Nc1cc(Nc2ccccc2S(=O)(=O)C(C)C)c2cc[nH]c2n1 [Mps1-IN-1, reference compound] |  |  |  |  |  |  |  |  |  |  |  |  |  |  |  |  | little effect | little effect | little effect | IC50 (Hs578T): > 10000 nM; IC50 (MDA-MB-468): 1850 nM; IC50 (MDA-MB-436): > 10000 nM; IC50 (AU565): > 10000 nM; IC50 (CAMA-1): > 10000 nM; IC50 (CAL-51): 1840 nM; IC50 (BT-20): > 10000 nM; IC50 (BT-474): > 10000 nM; IC50 (MDA-MB-231): > 10000 nM; IC50 (MCF-7): > 10000 nM; IC50 (T47D): > 10000 nM; IC50 (HCC1937): > 10000 nM; IC50 (MDA-MB-453): > 10000 nM; IC50 (Sk-Br-3): > 10000 nM; IC50 (BT-549): 2440 nM |
| AZ3146 |  |  |  |  |  |  |  |  |  |  |  |  |  |  |  |  | little effect | little effect | little effect |  |
